Test results from patent US9433603B2, “Use of 3-(R)-[3-(2-methoxyphenylthio)-2-(S)-methylpropyl]amino-3,4-dihydro-2H-1,5-benzoxathiepine for preventing and/or treating cardiotoxic effects caused by chemotherapy and/or radiation” (PIERRE FABRE MEDICAMENT, priority 2011, dated 2016).

What was measured:
[1] = tested on: rat cardiomyocytes; test: Rat cardiomyocyte culture with or without doxorubicin, cell suffering by LDH assay; format: cell-based; conditions: 48 hours
Experimental: The effects of 3-(R)-[3-(2-methoxyphenylthio)-2-(S)-methyl-propyl]amino-3,4-dihydro-2H-1,5-benzoxathiepine were assessed in the following cell model: rat cardiomyocytes were placed in culture either in the presence or in the absence of doxorubicin. After 48 hours, cell suffering was quantified by assay of the concentration of lactate dehydrogenase (LDH); LDH is […].

[2] = Cytotoxicity of the compound itself (statement, no method)
[3] = Effect on normal functioning of the cardiovascular system (earlier work of the inventors); conditions: even in strong concentrations

| Structure (SMILES) | Effect on the toxic effects of doxorubicin / viability of cardiomyocytes (LDH) ([1]; compound at 10 μM, with doxorubicin) | Cytotoxicity [2] | Effect on normal functioning of the cardiovascular system [3] | Effect on viability of cardiomyocytes (LDH) ([1]; doxorubicin at 1 and 10 μM, comparable with Triton X-100) |
| --- | --- | --- | --- | --- |
| COc1ccccc1SC[C@@H](C)CN[C@@H]1COc2ccccc2SC1 [3-(R)-[3-(2-methoxyphenylthio)-2-(S)-methyl-propyl]amino-3,4-dihydro-2H-1,5-benzoxathiepine] | significantly reduces the toxic effects of doxorubicin | not cytotoxic | does not affect the normal functioning of the cardiovascular system | – |
| COc1cccc2c1C(=O)c1c(O)c3c(c(O)c1C2=O)C[C@@](O)(C(=O)CO)C[C@@H]3O[C@H]1C[C@H](N)[C@H](O)[C@H](C)O1 [doxorubicin, reference compound] | – | – | – | significantly affects the viability of cardiomyocytes |
